Source: patent US9206130B2, “Quinoline derivatives as AXL kinase inhibitors” (Max-Planck-Gesellschaft zur Förderung der Wissenschaften …, priority 2008, dated 2015)
pIC50: −log10 of the molar value.

How the values were obtained:
[1] = target: T1, wild type AXL (wtAXL) receptor tyrosine kinase (Homo sapiens, UniProt P30530); test: NIH-3T3-AXL cellular tyrosine kinase assay (inhibition of AXL phosphorylation); type: cell-based; conditions: AXL phosphorylation in NIH-3T3-AXL (clone 22) cells, serum-depleted, 2 h with compound, immunoprecipitation / anti-phosphotyrosine blot
T1 construct: WtAXL cDNA was cloned into vector pLXSN(ESK) and transfected into Phoenix E packaging cells; expressed in transfected cells; host or cells: NIH3T3 N7 mouse fibroblasts, retrovirally infected (clone 22)
T1 sequence (P30530 26-894): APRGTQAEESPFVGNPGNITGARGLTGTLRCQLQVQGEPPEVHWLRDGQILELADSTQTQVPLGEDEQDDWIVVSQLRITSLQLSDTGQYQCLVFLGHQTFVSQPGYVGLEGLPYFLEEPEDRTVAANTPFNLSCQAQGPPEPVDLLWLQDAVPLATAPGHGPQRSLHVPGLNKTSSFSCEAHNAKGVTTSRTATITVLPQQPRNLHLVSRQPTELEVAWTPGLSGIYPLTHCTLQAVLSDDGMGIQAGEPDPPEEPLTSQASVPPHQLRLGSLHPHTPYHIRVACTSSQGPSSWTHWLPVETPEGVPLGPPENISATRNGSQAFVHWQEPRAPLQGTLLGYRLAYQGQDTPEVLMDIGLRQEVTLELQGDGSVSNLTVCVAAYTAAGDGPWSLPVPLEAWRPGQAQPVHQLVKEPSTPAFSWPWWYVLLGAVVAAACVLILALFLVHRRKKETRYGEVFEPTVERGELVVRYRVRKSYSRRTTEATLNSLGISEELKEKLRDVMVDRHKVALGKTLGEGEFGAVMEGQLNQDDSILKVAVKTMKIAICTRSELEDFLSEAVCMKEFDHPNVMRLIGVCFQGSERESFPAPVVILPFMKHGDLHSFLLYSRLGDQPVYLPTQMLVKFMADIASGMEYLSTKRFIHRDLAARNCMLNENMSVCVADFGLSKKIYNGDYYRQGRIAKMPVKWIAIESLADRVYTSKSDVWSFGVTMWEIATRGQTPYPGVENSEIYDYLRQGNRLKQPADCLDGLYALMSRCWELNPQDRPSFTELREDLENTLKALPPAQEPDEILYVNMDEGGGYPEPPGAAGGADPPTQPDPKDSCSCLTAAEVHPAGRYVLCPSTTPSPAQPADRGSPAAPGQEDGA
In short: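 NIH3T3 clones stably expressing human wtAXL (puromycin-selected) were exposed to serially diluted compounds for 2 h. AXL was immunoprecipitated from lysates with anti-AXL antibody, and phosphorylation detected by anti-phosphotyrosine (4G10) western blot with ECL.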

Row | Compound | pIC50 [1] | melting point
1 | COc1cc2nccc(Oc3ccc(NS(=O)(=O)c4ccc(OC)c5ccccc45)c(C)c3)c2cc1OC [Example A150, 4-Methoxy-naphthalene-1-sulfonic acid [4-(6,7-dimethoxy-quinolin-4-yloxy)-2-methyl-phenyl]-amide] | < 5.00 | 216 to 217 °C
2 | COc1cc2nccc(Oc3ccc(NS(=O)(=O)c4ccc(OC)c5ccccc45)cc3)c2cc1OC [Example A133, 4-Methoxy-naphthalene-1-sulfonic acid [4-(6,7-dimethoxy-quinolin-4-yloxy)-phenyl]-amide] | < 5.00 | 240 to 242 °C
3 | COc1cc2nccc(Oc3ccc(NS(=O)(=O)c4ccccc4F)c(F)c3)c2cc1OC [Example A59, N-[4-(6,7-Dimethoxy-quinolin-4-yloxy)-2-fluoro-phenyl]-2-fluoro-benzenesulfonamide] | < 6.00 | 235 to 236 °C
4 | COc1cc(S(=O)(=O)Nc2ccc(Oc3ccnc4cc(OC)c(OC)cc34)c(OC)c2)ccc1F [Example A121, N-[4-(6,7-Dimethoxy-quinolin-4-yloxy)-3-methoxy-phenyl]-4-fluoro-3-methoxy-benzenesulfonamide] | < 5.00 | 109 to 110 °C
5 | COc1cc2nccc(Oc3ccc(NS(=O)(=O)c4ccccc4OC(F)(F)F)cc3OC)c2cc1OC [Example A119, N-[4-(6,7-Dimethoxy-quinolin-4-yloxy)-3-methoxy-phenyl]-2-trifluoromethoxy-benzenesulfonamide] | < 5.52 | 211 to 212 °C
6 | COc1cc2nccc(Oc3ccc(NS(=O)(=O)c4ccccc4OC(F)(F)F)c(C)c3)c2cc1OC [Example A112, N-[4-(6,7-Dimethoxy-quinolin-4-yloxy)-2-methyl-phenyl]-2-trifluoromethoxy-benzenesulfonamide] | < 5.52 | 230 to 232 °C
7 | COc1cc2nccc(Oc3ccc(NS(=O)(=O)c4ccc(-c5ccccc5)cc4)c(C)c3)c2cc1OC [Example A92, Biphenyl-4-sulfonic acid [4-(6,7-dimethoxy-quinolin-4-yloxy)-2-methyl-phenyl]-amide] | < 5.00 | 228 to 230 °C
8 | COc1cc2nccc(Oc3ccc(NS(=O)(=O)c4cccc(Cl)c4)c(F)c3)c2cc1OC [Example A25, 3-Chloro-N-[4-(6,7-dimethoxy-quinolin-4-yloxy)-2-fluoro-phenyl]-benzenesulfonamide] | 5.62 | 250 to 251 °C
9 | COc1cc2nccc(Oc3ccc(NS(=O)(=O)c4ccccc4C(F)(F)F)c(C)c3)c2cc1OC [Example A113, N-[4-(6,7-Dimethoxy-quinolin-4-yloxy)-2-methyl-phenyl]-2-trifluoromethyl-benzenesulfonamide] | < 5.52 | 254 to 257 °C
10 | COc1cc2nccc(Oc3ccc(NS(=O)(=O)c4cccs4)c(F)c3)c2cc1OC [Example A4] | 5.22 | 214 to 216 °C
11 | COc1cc2nccc(Oc3ccc(NS(=O)(=O)c4cccc(C#N)c4)c(F)c3)c2cc1OC [Example A1, 3-Cyano-N-[4-(6,7-dimethoxy-quinolin-4-yloxy)-2-fluoro-phenyl]-benzenesulfonamide] | 5.35 | 223 to 224 °C
12 | COc1cc2nccc(Oc3ccc(NS(=O)(=O)c4ccccc4Br)c(F)c3)c2cc1OC [Example A55, 2-Bromo-N-[4-(6,7-dimethoxy-quinolin-4-yloxy)-2-fluoro-phenyl]-benzenesulfonamide] | < 6.00 | 225 to 227 °C
13 | COc1cc2nccc(Oc3ccc(NS(=O)(=O)c4cc(F)ccc4F)c(C)c3)c2cc1OC [Example A151, N-[4-(6,7-Dimethoxy-quinolin-4-yloxy)-2-methyl-phenyl]-2,5-difluoro-benzenesulfonamide] | < 5.00 | 259 to 260 °C
14 | COc1cc2nccc(Oc3ccc(NS(=O)(=O)c4ccccc4OC(F)(F)F)cc3C)c2cc1OC [Example A129, N-[4-(6,7-Dimethoxy-quinolin-4-yloxy)-3-methyl-phenyl]-2-trifluoromethoxy-benzenesulfonamide] | < 5.52 | 207 to 209 °C
15 | CCc1ccc(S(=O)(=O)Nc2ccc(Oc3ccnc4cc(OC)c(OC)cc34)cc2F)cc1 [Example A56, N-[4-(6,7-Dimethoxy-quinolin-4-yloxy)-2-fluoro-phenyl]-4-ethyl-benzenesulfonamide] | < 6.00 | 193 to 195 °C
16 | COc1cc2nccc(Oc3ccc(NS(=O)(=O)c4ccc(Br)c(Cl)c4)c(F)c3)c2cc1OC [Example A60, 4-Bromo-3-chloro-N-[4-(6,7-dimethoxy-quinolin-4-yloxy)-2-fluoro-phenyl]-benzenesulfonamide] | 6.10 | 231 to 232 °C
17 | COc1cc2nccc(Oc3ccc(NS(=O)(=O)c4csc5ccccc45)cc3F)c2cc1OC [Example A108, Benzo[b]thiophene-3-sulfonic acid [4-(6,7-dimethoxy-quinolin-4-yloxy)-3-fluoro-phenyl]-amide] | < 6.00 | 191 to 193 °C
18 | COc1cc2nccc(Oc3ccc(NS(=O)(=O)c4cccc(-c5ccccc5)c4)c(F)c3)c2cc1OC [Example A34, Biphenyl-3-sulfonic acid [4-(6,7-dimethoxy-quinolin-4-yloxy)-2-fluoro-phenyl]-amide] | 6.37 | 193 to 195 °C
19 | COc1cc2nccc(Oc3ccc(NS(=O)(=O)c4ccco4)c(F)c3)c2cc1OC [Example A22, Furan-2-sulfonic acid [4-(6,7-dimethoxy-quinolin-4-yloxy)-2-fluoro-phenyl]-amide] | 5.02 | 210 to 212 °C
20 | COc1cc2nccc(Oc3ccc(NS(=O)(=O)c4cc(C)c(C)cc4OC)c(F)c3)c2cc1OC [Example A64, N-[4-(6,7-Dimethoxy-quinolin-4-yloxy)-2-fluoro-phenyl]-2-methoxy-4,5-dimethyl-benzenesulfonamide] | < 6.00 | 238 to 240 °C

More lines, now with the values ahead:

Row | pIC50 [1] | melting point | Compound
21 | < 5.00 | 207 to 208 °C | Cc1cc(Oc2ccc(NS(=O)(=O)c3ccccc3)cc2)c2cc(F)ccc2n1 [Example B9, N-[4-(6-Fluoro-2-methyl-quinolin-4-yloxy)-phenyl]-benzenesulfonamide]
22 | < 5.00 | 230 to 232 °C | COc1cc(C)c(C)cc1S(=O)(=O)Nc1ccc(Oc2cc(C)nc3c(C(F)(F)F)cccc23)c(F)c1 [Example C10, N-[3-Fluoro-4-(2-methyl-8-trifluoromethyl-quinolin-4-yloxy)-phenyl]-2-methoxy-4,5-dimethyl-benzenesulfonamide]
23 | < 5.00 | 225 to 226 °C | Cc1cc(Oc2ccc(NS(=O)(=O)c3ccc4c(c3)CC(=O)N4C)c(F)c2)c2cccc(C(F)(F)F)c2n1 [Example C19, 1-Methyl-2-oxo-2,3-dihydro-1H-indole-5-sulfonic acid [2-fluoro-4-(2-methyl-8-trifluoro-methyl-quinolin-4-yloxy)-phenyl]-amide]
24 | < 5.00 | 215 to 217 °C | Cc1cc(Oc2ccc(NS(=O)(=O)c3ccc(-c4ccccc4)cc3)c(F)c2)c2cccc(C(F)(F)F)c2n1 [Example C15]
25 | < 5.00 | 195 to 196 °C | Cc1cc(Oc2ccc(NS(=O)(=O)c3ccsc3)cc2)c2cc(F)ccc2n1 [Example B16, Thiophene-3-sulfonic acid [4-(6-fluoro-2-methyl-quinolin-4-yloxy)-phenyl]-amide]
26 | 5.60 | 186 to 188 °C | COc1cc2c(Oc3ccc(NS(=O)(=O)c4ccccc4OC(F)(F)F)c(C)c3)ccnc2cc1OCCN1CCOCC1 [Example D08, N-{4-[6-Methoxy-7-(2-morpholin-4-yl-ethoxy)-quinolin-4-yloxy]-2-methyl-phenyl}-2-trifluoromethoxy-benzenesulfonamide]
27 | 6.82 | 184 to 186 °C | COc1cc2c(Oc3ccc(NS(=O)(=O)c4ccccc4Br)cc3F)ccnc2cc1OCCCN1CCC(C)CC1 [Example D18, 2-Bromo-N-(3-fluoro-4-{6-methoxy-7-[3-(4-methyl-piperidin-1-yl)-propoxy]-quinolin-4-yloxy}-phenyl)-benzenesulfonamide]
28 | < 6.00 | 258 to 259 °C | Cc1cc(Oc2ccc(NS(=O)(=O)c3cnc(C)[nH]3)cc2F)c2cccc(C(F)(F)F)c2n1 [Example C13, 2-Methyl-3H-imidazole-4-sulfonic acid [3-fluoro-4-(2-methyl-8-trifluoromethyl-quinolin-4-yloxy)-phenyl]-amide]
